Numbering of substitutions follows the chain as printed. Like-named read-outs stand apart in the source and are kept apart here.

This note sets out measurements from PMC8962382, “Identification of Novel Mitochondrial Pyruvate Carrier Inhibitors by Homology Modeling and Pharmacophore-Based Virtual Screening” (Biomedicines, 2022).

Assay [1] has as its target T1, mitochondrial pyruvate carrier (MPC) (Mus musculus, UniProt P63030+Q9D023).
T1 construct: 50 µg of mitochondrial protein was added to the chambers of an Oxygraph O2K; from tissue; host or cells: heart mitochondria of C57Bl/6J mice
T1 sequence (P63030 2-109 limits assumed): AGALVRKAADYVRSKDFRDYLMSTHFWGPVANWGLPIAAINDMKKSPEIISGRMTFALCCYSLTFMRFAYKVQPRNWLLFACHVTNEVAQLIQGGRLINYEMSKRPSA
T1 sequence (Q9D023 1-127): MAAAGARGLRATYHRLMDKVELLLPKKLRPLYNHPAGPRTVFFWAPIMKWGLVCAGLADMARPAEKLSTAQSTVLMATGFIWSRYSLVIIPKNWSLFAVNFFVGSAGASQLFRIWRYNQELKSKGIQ
The experiment in a line: Inhibition of pyruvate-stimulated respiration (OCR) of isolated heart mitochondria. It is filed as biochemical, mice. The conditions noted are these: for IC50: Table 1, inhibiting mitochondrial pyruvate respiration, isolated heart mitochondria. As for the experimental part: Hearts were removed from mice after CO2 asphyxiation and homogenized in buffer containing 250 mM sucrose, 10 mM Tris base, and 1 mM EDTA (pH = 7.4) by 8–10 passes of a glass-on-glass Dounce homogenizer on ice. Homogenates were centrifuged at 1000× g for 5 min at 4 °C to pellet nuclei and undisrupted cells. The supernatants were then centrifuged at 10,000× g for 10 min at 4 °C to enrich for mitochondria; this mitochondrial pellet was washed and re-pelleted twice in fresh sucrose/tris buffer. The mitochondrial pellet was then solubilized in ~150 μL of Mir05 respiration buffer (0.5 mM EGTA, 3 mM MgCl2, 60 mM lactobionic acid, 20 mM taurine, 10 mM KH2PO4, 20 mM HEPES, 110 mM sucrose and 1 g/L of fatty acid free bovine serum albumin; pH 7.1). Mitochondrial protein content was then measured by BCA; 50 µg of mitochondrial protein was added to the chambers of an Oxygraph O2K (Oroboros Instruments), with a total volume of 2 mL Mir05 buffer set to 37 °C. Respiration was stimulated with 5 mM pyruvate/2 mM malate and 2 mM ADP. After obtaining steady state respiration measurements, compounds were added to the chamber at the indicated concentrations. Then, 5 mM succinate was added to determine inhibitor specificity towards pyruvate-stimulated respiration. Steady-state rates of oxygen consumption were assessed for 1–2 min before addition of subsequent substrate or inhibitor. Oxygen consumption rates (OCR) were calculated from the change in oxygen concentration over time and normalized to 50 µg of mitochondria within the chamber.

In assay [2] the target is T2, Human MPC1 and MPC2 (WT MPC BRET constructs) (Homo sapiens, UniProt O95563+Q9Y5U8).
T2 construct: expressed in transfected cells; host or cells: U2OS cells, transient transfection
T2 sequence (Q9Y5U8 2-109 limits assumed): T1 sequence (P63030 2-109 limits assumed) with V84A, N99K, Y100H, S103T, R105T, P106A
T2 sequence (O95563 1-127): T1 sequence (Q9D023 1-127) with A2S, M17L, L23M, K26E, T73A, S105A, S123A, G125A, I126H, Q127K
The experiment in a line: BRET-based MPC reporter assay in U2OS cells (MPC1-mCherry / MPC2-NLuc). It is filed as cell-based. Particulars: for BRET activity: test compounds dosed at 10 μM, U2OS cells, WT MPC BRET constructs; for BRET assay activation: WT MPC. As for the experimental part: Based on the success of a previously described MPC BRET reporter assay, we developed our own BRET assay using more recently adopted BRET donor and acceptor pairs. In this assay, Nanoluciferase is used as the BRET donor, and mCherry fluorescent protein is used as the BRET acceptor. Human MPC1 and MPC2 cDNA constructs with stop codon removed for C-terminal tagging were obtained from the Harvard PlasmID repository. […] Site-directed mutagenesis (Agilent) was then performed to delete linking regions between the MPC proteins and C-terminal tags.
For BRET assays, U2OS cells were transiently transfected with MPC1-mCherry and MPC2-NLuc constructs and, 24 h later, plated onto 9 columns of a clear-bottom white 96-well plate at 10,000 cells/well. As a BRET control, some cells were transfected with MPC2-NLuc only, and these cells plated on the remaining 3 columns of the 96-well plate at 10,000 cells/well. The following day, cells were washed with PBS and starved in phenol red-, glucose-, and pyruvate-free Dulbecco’s Modified Eagle’s Medium (DMEM) for 3 h. Cells were then washed in PBS and then provided PBS with 1 mM CaCl2 and 0.5 mM MgCl2 plus 2 μg/mL coelenterazine h BRET substrate, a white sticker applied to the bottom of the plate, and the plate immediately placed into a BioTek Synergy plate reader. […] After several baseline readings, the plate was ejected, and test substrates/compounds were manually pipetted into the wells. […] All data was then normalized to the values immediately prior to compound injection. Data were either reported as curves over time or average normalized BRET of the several readings immediately after compound injections. For testing pyruvate/inhibitor-binding residues, point mutations were made in MPC1 or MPC2 constructs by site-directed mutagenesis (Agilent); BRET assays were performed the same as above. All of these assays contained 96-well plates directly comparing cells expressing WT MPC and mutant BRET constructs.

The subject of the next assay is MPC1-F66A or MPC2-K49A. The experiment in a line: BRET-based MPC reporter assay with mutant MPC constructs. It is filed as cell-based, Human. The conditions noted are these: magnitude much less than in WT-expressing cells. As to the method:
For BRET assays, U2OS cells were transiently transfected with MPC1-mCherry and MPC2-NLuc constructs and, 24 h later, plated onto 9 columns of a clear-bottom white 96-well plate at 10,000 cells/well. As a BRET control, some cells were transfected with MPC2-NLuc only, and these cells plated on the remaining 3 columns of the 96-well plate at 10,000 cells/well. The following day, cells were washed with PBS and starved in phenol red-, glucose-, and pyruvate-free Dulbecco’s Modified Eagle’s Medium (DMEM) for 3 h. Cells were then washed in PBS and then provided PBS with 1 mM CaCl2 and 0.5 mM MgCl2 plus 2 μg/mL coelenterazine h BRET substrate, a white sticker applied to the bottom of the plate, and the plate immediately placed into a BioTek Synergy plate reader. Luminescence was then read repeatedly from the top of the plate at emission wavelengths of 485/20 nm and 640/40 nm for NLuc and mCherry signals, respectively. After several baseline readings, the plate was ejected, and test substrates/compounds were manually pipetted into the wells. […] To calculate BRET activity, at each reading interval, the luminescence of 620 nm emission wavelength was divided by the 485 nm emission wavelength, and the values from the MPC2-Nluc-only expressing cells were subtracted from the cells expressing both constructs. […]
Background: In BRET a luciferase serves as donor, and the signal depends on an acceptor being close.

On to `O=C(NC(Cc1c[nH]c2ccccc12)C(=O)O)C1CC1` (stereo not shown) [BE1975], for which the “MPC inhibitory activity” value in assay [1] (SAR statement) was “abolished activity”. The IC50 (in general, the midpoint of a concentration-inhibition curve) in assay [1] was “inactive”.

In the case of `Cc1nn(-c2ccccc2)c(C)c1/C=C(\C#N)C(=O)O` [BE1980, (E)-2-Cyano-3-(3,5-Dimethyl-1-Phenyl-4-Pyrazolyl)acrylic Acid], in assay [1] (read-out: IC50), the IC50 is 0.162 µM. Moreover, in assay [2], the BRET activity entry is listed as “increased BRET activity”.

`N#C/C(=C\c1c[nH]nc1-c1cccc(Br)c1)C(=O)O` [BE1985]: the IC50 in assay [1] (read-out: IC50) amounted to 0.638 µM. For the same compound, in assay [1] (ratio of IC50 values), the “fold less potent than BE1978” value was 5 fold and the “fold less potent than BE1980” value is 4 fold. Besides, the BRET activity entry in assay [2] is recorded as “increased BRET activity”.

Consider `CCOC(=O)/C(C#N)=C/c1c[nH]nc1C(C)(C)C` [BE1988], for which, in assay [1], the IC50 result is “inactive”.

Turning to `N#C/C(=C\c1n[nH]cc1-c1ccccc1)C(=O)O` [BE2617, (E)-2-Cyano-3-(4-Phenyl-3-Pyrazolyl)acrylic Acid], in assay [1] (read-out: IC50), the IC50 amounted to 0.039 µM. Also, the “fold more potent than UK-5099” value in assay [1] (ratio of IC50 values) came to 6 fold. In assay [2], the BRET activity result was “showed activity”.

As to `Cc1ccc(-c2c[nH]nc2/C=C(\C#N)C(=O)O)cc1` [BE2623, (E)-2-Cyano-3-[4-(p-Tolyl)-3-Pyrazolyl]acrylic Acid], the IC50 in assay [1] (read-out: IC50) was found to be 0.731 µM. Further, in assay [1] (inhibiting the respiration), the “fold less potent than UK-5099” value came out at 3 fold. In addition, the “fold less potent than BE2617” value in assay [1] (ratio of IC50 values) is given as “more than 18 fold”. For the same compound, in assay [2], the BRET activity result was “showed activity”.

Consider `COc1cccc(C(=O)COc2ccc(CC3SC(=O)[N-]C3=O)cc2)c1.[K+]` (stereo not shown) [MSDC-0602K, reference compound], for which the BRET assay activation result in assay [2] (10 μM MSDC-0602K vs DMSO vehicle) is on record as “activated”. In addition, the “BRET activity in mutants” value in the assay with MPC1-F66A or MPC2-K49A is listed as “small, but significant, activation of BRET activity”.

Turning to `N#C/C(=C\c1cn(-c2ccccc2)c2ccccc12)C(=O)O` [UK-5099, reference compound], the IC50 in assay [1] (read-out: IC50) was determined as 0.241 µM. In addition, the BRET assay activation result in assay [2] (5 μM UK-5099 vs DMSO vehicle) is recorded as “activated”. The “BRET activity in mutants” value in the assay with MPC1-F66A or MPC2-K49A is “small, but significant, activation of BRET activity”.

As for `CC(=O)C(=O)O` [pyruvate], the BRET assay activation result in assay [2] (5 mM pyruvate vs DMSO vehicle) was “activated”.
